Test results published in US20250367173A1, “ECTONUCLEOTIDE PYROPHOSPHATASE-PHOSPHODIESTERASE-1 INHIBITORS AND PHARMACEUTICAL COMPOSITIONS COMPRISING THE SAME” (LigaChem Biosciences Inc., priority 2022, published 2025).

Key:
[1] = molecular target: T1, ENPP-1 (Homo sapiens, UniProt P22413); test: ENPP-1 enzyme assay with pNP-TMP substrate; assay type: biochemical; details: 12.5 ng ENPP-1, 720 μM substrate pNP-TMP, pH 9.0, 37° C., 60 minutes, absorbance 405 nm; average IC50
T1 construct: purchased Biovendor RD172124100
T1 sequence (P22413 1-925): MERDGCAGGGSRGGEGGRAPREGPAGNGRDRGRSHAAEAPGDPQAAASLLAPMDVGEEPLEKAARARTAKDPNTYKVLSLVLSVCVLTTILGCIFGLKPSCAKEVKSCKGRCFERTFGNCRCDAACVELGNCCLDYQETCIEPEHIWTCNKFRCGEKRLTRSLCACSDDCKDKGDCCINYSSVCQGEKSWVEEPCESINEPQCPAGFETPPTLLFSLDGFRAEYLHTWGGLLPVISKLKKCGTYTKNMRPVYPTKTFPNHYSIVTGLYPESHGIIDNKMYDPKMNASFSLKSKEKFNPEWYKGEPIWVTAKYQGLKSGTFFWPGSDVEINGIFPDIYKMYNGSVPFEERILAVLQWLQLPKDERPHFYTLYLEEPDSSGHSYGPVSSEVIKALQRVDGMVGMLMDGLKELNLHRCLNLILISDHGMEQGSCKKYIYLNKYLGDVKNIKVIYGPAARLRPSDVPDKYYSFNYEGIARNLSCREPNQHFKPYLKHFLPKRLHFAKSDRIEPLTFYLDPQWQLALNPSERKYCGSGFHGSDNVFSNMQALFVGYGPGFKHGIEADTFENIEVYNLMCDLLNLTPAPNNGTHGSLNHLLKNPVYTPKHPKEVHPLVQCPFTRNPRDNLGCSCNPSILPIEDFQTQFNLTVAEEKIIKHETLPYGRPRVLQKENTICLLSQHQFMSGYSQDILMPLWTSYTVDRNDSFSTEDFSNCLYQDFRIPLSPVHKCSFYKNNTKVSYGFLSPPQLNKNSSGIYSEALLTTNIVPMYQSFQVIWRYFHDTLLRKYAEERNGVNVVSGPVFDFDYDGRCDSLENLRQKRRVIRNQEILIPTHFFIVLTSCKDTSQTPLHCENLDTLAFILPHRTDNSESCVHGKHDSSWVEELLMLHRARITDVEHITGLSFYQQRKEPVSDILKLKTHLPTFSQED
Description: In order to measure the ENPP-1 inhibitory activity of the compounds according to the present disclosure, the following tests were performed.
ENPP-1 hydrolyzes a variety of substrates, including phosphodiester bonds of nucleotides and nucleotide sugars and pyrophosphate bonds of nucleotides and nucleotide sugars. p-Nitrophenyl 5′-thymidine monophosphate (p-Nph-5′-TMP) is an artificial substrate for 5′-adenosine monophosphate (AMP), which is hydrolyzed by the human recombinant ENPP-1 enzyme. In the above reaction, ENPP-1 enzymatic activity is monitored through the formation of yellow p-nitrophenolate, which absorbs at 405 nm.
First, the reaction mixture contains 100 mM Tris-HCl (pH 9.0), 150 mM NaCl, […], and 1% DMSO. Serially diluted ENPP-1 inhibitors (test compound concentrations ranging from 10 μM to 0.5 nM) are reacted with 12.5 ng of ENPP-1 (Biovendor, catalog number RD172124100) and 720 μM substrate pNP-TMP at 37° C. for 60 minutes. All assays include a DMSO control without ENPP-1 inhibitor that gives maximum absorbance.
(§1) After 60 minutes of this reaction, the […] is measured using an Epoch™ Microplate Spectrophotometer (BioTek Instruments Inc.). Inhibition (%) is calculated using the following formula: Sample OD405 nm/Max OD405 nm×100%. % residual ENPP-1 enzyme activity versus IC50 values for ENPP-1 inhibitor concentrations were determined by fitting inhibition curves using the 4-parameter method of GraphPad Prism® software [GraphPad version 9.3.1 for Windows, GraphPad Software, La Jolla California USA, www.graphpad.com].

[2] = molecular target: T1, ENPP-1; test: ENPP-1 enzyme assay with cGAMP substrate; assay type: biochemical; details: 200 pM ENPP-1, 10 μM substrate 2′3′-cGAMP, pH 7.4, 37° C., 30 minutes, Transcreener AMP2/GMP2 kit; average IC50
Description: 2′3′-cGAMP is a natural substrate specifically hydrolyzed by ENPP-1, and produces 5′-adenosine monophosphate (AMP) and 5′-guanosine monophosphate (GMP). AMP and GMP produced from the reaction are monitored for ENPP-1 enzyme activity through an AMP^2/GMP^2 ENPP-1 Assay kit (Bellbrook Labs, catalog number 3015).
First, the reaction mixture contains 25 mM Tris-HCl (pH 7.4), 5 mM MgCl2, 0.01% Brij-35, and 1% DMSO. Serially diluted ENPP-1 inhibitors (test compound concentrations ranging from 10 μM to 0.5 nM) are reacted with 200 pM ENPP-1 (Biovendor, catalog number RD172124100) and 10 μM substrate 2′3′-cGAMP at 37° C. for 30 minutes. All assays include a DMSO control without ENPP-1 inhibitor that provides maximal AMP and GMP production. After 30 minutes of this reaction, AMP and GMP production is detected as a measure of ENPP-1 enzymatic activity using the Transcreener® AMP^2/GMP^2 ENPP-1 Assay kit. The detection reagent is a reagent containing 16 nM AMP^2/GMP^2 Antibody-Tb, 25 mM Tris-HCl and 60.1 nM AMP/GMP HiLyte647 Tracer, which is added by 5 μl, mixed well, and incubated at 25° C. for 2 hours.
as §1, with “The” for “After 60 minutes of this reaction, the”, “a SPARK Cyto plate reader (Tecan).” for “an Epoch™ Microplate Spectrophotometer (BioTek Instruments Inc.).”, “(Max 615:665 ratio-615:665 ratio)/Max 615:665 ratio×100%.” for “Sample OD405 nm/Max OD405 nm×100%.”

| Structure (SMILES) | IC50 [1] [nM] | IC50 [2] [nM] |
| --- | --- | --- |
| COc1ccc2c(c1)c1c(n2Cc2ccc(S(N)(=O)=O)cc2)CCCN1 [Compound 38, 4-((8-methoxy-1,2,3,4-tetrahydro-5H-pyrido[3,2-b]indol-5-yl)methyl)benzenesulfonamide] | < 1000 | < 1000 |
| COc1ccc2c(c1)c1c(n2Cc2ccc(S(N)(=O)=O)cc2)CCNC1=O [Compound 41, 4-((8-methoxy-1-oxo-1,2,3,4-tetrahydro-5H-pyrido[4,3-b]indol-5-yl)methyl)benzene sulfonamide] | < 1000 | 1000 to 10000 |
| COc1ccc2c3c(n(Cc4ccc(S(N)(=O)=O)cc4)c2c1)CCNC3=O [Compound 42, 4-((7-methoxy-1-oxo-1,2,3,4-tetrahydro-5H-pyrido[4,3-b]indol-5-yl)methyl)benzene sulfonamide] | < 1000 | < 1000 |
| COc1ccc2c3c(=O)[nH]ccc3n(Cc3ccc(S(N)(=O)=O)cc3)c2c1 [Compound 43, 4-((7-methoxy-1-oxo-1,2-dihydro-5H-pyrido[4,3-b]indol-5-yl)methyl)benzenesulfonamide] | < 1000 | 1000 to 10000 |
| COc1ccc2c(c1)c1c(=O)[nH]ncc1n2Cc1ccc(S(N)(=O)=O)cc1 [Compound 44, 4-((8-methoxy-1-oxo-1,2-dihydro-5H-pyridazino[4,5-b]indol-5-yl)methyl)benzene sulfonamide] | < 1000 | < 1000 |
| COc1ccc2c3c(=O)[nH]ncc3n(Cc3ccc(S(N)(=O)=O)cc3)c2c1 [Compound 45, 4-((7-methoxy-1-oxo-1,2-dihydro-5H-pyridazino[4,5-b]indol-5-yl)methyl)benzene sulfonamide] | < 1000 | < 1000 |
| COc1ccc2c3c(=O)[nH]ncc3n(Cc3ccc(S(C)(=N)=O)cc3)c2c1 (stereo not drawn) [Compound 46, 7-methoxy-5-(4-(S-methylsulfonimidoyl)benzyl)-2,5-dihydro-1H-pyridazino[4,5-b]indol-1-one] | < 1000 | < 1000 |
| COc1ccc2c3cnncc3n(Cc3ccc(S(N)(=O)=O)cc3)c2c1 [Compound 47, 4-((7-methoxy-5H-pyridazino[4,5-b]indol-5-yl)methyl)benzenesulfonamide] | < 1000 | 1000 to 10000 |
| COc1ccc2c3cncnc3n(Cc3ccc(S(N)(=O)=O)cc3)c2c1 [Compound 48, 4-((7-methoxy-9H-pyrimido[4,5-b]indol-9-yl)methyl)benzenesulfonamide] | < 1000 | 1000 to 10000 |
| COc1ccc2c(c1)c1cccnc1n2Cc1ccc(S(N)(=O)=O)cc1 [Compound 49, 4-((6-methoxy-9H-pyrido[2,3-b]indol-9-yl)methyl)benzenesulfonamide] | < 1000 | 1000 to 10000 |
| COc1ccc2c(c1)c1ncncc1n2Cc1ccc(S(N)(=O)=O)cc1 [Compound 51, 4-((8-methoxy-5H-pyrimido[5,4-b]indol-5-yl)methyl)benzenesulfonamide] | < 1000 | < 1000 |
| COc1ccc2c3cnccc3n(Cc3ccc(S(N)(=O)=O)cc3)c2c1 [Compound 52, 4-((7-methoxy-5H-pyrido[4,3-b]indol-5-yl)methyl)benzenesulfonamide] | < 1000 | 1000 to 10000 |
| COc1ccc2c3ncccc3n(Cc3ccc(S(N)(=O)=O)cc3)c2c1 [Compound 53, 4-((7-methoxy-5H-pyrido[3,2-b]indol-5-yl)methyl)benzenesulfonamide] | < 1000 | < 1000 |
| COc1cc2c3ncccc3n(Cc3ccc(P(=O)(O)O)cc3)c2cc1F [Compound 57, (4-((7-fluoro-8-methoxy-5H-pyrido[3,2-b]indol-5-yl)methyl)phenyl)phosphonic acid] | < 1000 | < 1000 |
| COc1ccc2c(c1)c1ncccc1n2Cc1ccc(C(F)(F)P(=O)(O)O)cc1 [Compound 58, (difluoro (4-((8-methoxy-5H-pyrido[3,2-b]indol-5-yl)methyl)phenyl)methyl)phosphonic acid] | < 1000 | 1000 to 10000 |
